US7166744B2, “Retinoid derivatives and methods for producing said compounds and anti-cancer pharmaceutical composition comprising said compounds” (Chebigen Co., Ltd., priority 2001, dated 2007)
“Also recorded” adds a separate entry of the source.

What was measured:
Type in all cases: cell-based
[1] = tested on: PLCPRF5 liver cancer cells; assay: MTT proliferation assay, PLCPRF5
Experimental: The effects of test compounds on proliferation of various cancer cells was examined by 3-(4,5-dimethylthiazol-2-yl)-2,5-diphenyltetrazolium bromide (MTT, Sigma) assay in a dose dependent manner. In the MTT assay, colon, liver, cervix, ovary, and breast cancer cell lines were treated with test compounds at various concentrations. Living cancer cells reduce MTT to dark blue MTT formazan that would be measured by absorbance.
Colon cancer cells, HCT116, DLD-1 and HT29, cervix cancer cells, HeLa and CaSki, ovary cancer cells, SKOV-3, 2774 and OVCAR-3, liver cancer cells, SK-Hep-1, PLCPRF5 and HepG2, and breast cancer cells, ZR75-1 and MDA-MB 231 were seeded at an initial density of 3000 cells per well in 96-well plates. After attachment of cells to the walls of the wells, the medium containing fresh retinoid was treated with various concentrations (0.5 μM, 1 μM, 2.5 μM, 5 μM, 10 μM) for 48 hours. 50 μl of MTT solution (2 mg/ml in PBS) was added to cell culture media. The reaction micture was incubated at 37° C. in a 5% CO2 atmosphere for 4 hours. The supernatant was removed and 150 μl of DMSO was added. The optical density was measured spectrophotometrically at 550 nm. […] For other retinoid derivatives according to the present invention, absorbances were measured by this procedure and IC50 values, concentrations required for 50% growth inhibition, were determined.

[2] = tested on: MCF-7 breast cancer cells; assay: DNA fragmentation assay (agarose gel), MCF-7; conditions: MCF-7, 2.5, 5.0, 10 μM, 48 hours
Experimental: After treated with each retinoid derivative at various concentrations (2.5, 5.0, 10 μM) for 48 hours, HCT116 or MCF-7 cells were poured in 1 mL of PBS and centrifuged at a rate of 13,000 rpm at 4° C. for 1 min. The resulting cell pellets were resuspended in 700 μl of lysis buffer (500 mM Tris, 100 mM EDTA, 0.5% SDS) containing 17.5 μl of proteinase K (20 mg/ml), and incubated on 55° C. water bath for 3 hours. The lysates were mixed with 700 μl of phenol solution while slowly stirring and centrifuged at 12,000 rpm for 5 min. The supernatants were separated and extracted with phenol once more. The supernatants were mixed with 600 μl of 100% ethanol and 60 μl of 3M NaOAc (pH 7.0) and left at −20° C. for 2 hours. The supernatants were removed by centrifugation at 12,000 rpm for 10 min to obtain pellets. After 70% ethanol washing and drying, DNA pellet was resuspended in 100 μl of TE (Tris-EDTA) buffer and treated with RNase A. The obtained samples were electrophoresed for 2 hours at 75 V on 1.8% agarose gels.

[3] = target: T1, RXRγ (Homo sapiens, UniProt P48443); assay: CAT reporter assay, RXRγ; conditions: 1 μM, control = 1.0, RA = 9-cis RA; for expression level of CAT enzyme, RXRγ −: column '−'
T1 construct: expressed in transfected cells
T1 sequence (P48443 1-463): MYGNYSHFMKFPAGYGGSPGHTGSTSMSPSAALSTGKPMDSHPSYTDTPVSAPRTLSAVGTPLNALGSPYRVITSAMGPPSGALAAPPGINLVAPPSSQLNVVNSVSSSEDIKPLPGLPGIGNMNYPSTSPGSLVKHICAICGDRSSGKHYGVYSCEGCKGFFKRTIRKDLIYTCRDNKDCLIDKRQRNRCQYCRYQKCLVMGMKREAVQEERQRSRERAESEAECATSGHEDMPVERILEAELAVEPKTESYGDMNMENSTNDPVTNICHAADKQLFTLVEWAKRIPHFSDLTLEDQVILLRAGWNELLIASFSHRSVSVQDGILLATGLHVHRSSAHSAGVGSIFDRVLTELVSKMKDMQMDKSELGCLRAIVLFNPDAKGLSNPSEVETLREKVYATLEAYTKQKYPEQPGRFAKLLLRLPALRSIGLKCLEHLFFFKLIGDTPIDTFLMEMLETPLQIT
Description: As the reporter gene, chloramphenicol acetyltransferase (CAT) with a transcription control site reactive to respective receptors was used.

[4] = tested on: RARs and RXRs; assay: CAT reporter assay, summary for RARs and RXRs (Experimental Example 9); conditions: 1 μM
Description: In order to confirm the effect of KCBG60 according to the present invention on retinoid receptor activity, cells were cotransfected with expression vectors of receptor subfamilies and reporter genes. As the reporter gene, chloramphenicol acetyltransferase (CAT) with a transcription control site reactive to respective receptors was used.
In the transcriptional activity for RXR type receptors, similar results were obtained.

[5] = tested on: cancer cells; assay: FACS analysis of DNA content; conditions: 10 μM, 96 hours
Description: In order to quantitatively determine the levels of apoptosis, the cells treated with the same conditions as above were subjected to FACS analysis to measure DNA contents (FIG. 11).

[6] = tested on: HCT116 colon cancer cells; assay: Optical microscopy of treated cells, HCT116; conditions: HCT116, 5 μM, 48 hours, compared to HPR
Experimental: (§1) Both colon cancer HCT116 cells and breast cancer MCF-7 cells were treated with 5 μM of the retinoid derivatives KCBG10 and KCBG41 for 48 hours, and photographed by optical microscope (×200). As a control compound, HPR was used at the same concentration. In FIG. 2, the control represents non-treated cells.

[7] = tested on: MCF-7 breast cancer cells; assay: Optical microscopy of treated cells, MCF-7; conditions: MCF-7, 5 μM, 48 hours, compared to HPR
Experimental: as §1

[8] = tested on: PARP (poly(ADP-ribose)polymerase) and CPP32 (caspase-3) cleavage in HCT 116 cells; assay: Western blotting of PARP and CPP32 cleavage; conditions: 5 μM
Experimental: FIG. 6 is the cleavage results of PARP and CPP-32, by a Western blotting analysis, derived from colon cancer cells HCT 116 to which the respective retinoid derivatives were treated.
By DAPI (4,6-diamidino-2-phenylindole) staining assay for staining DNA in cellular nucleus, nuclear condensation and fragmentation, characteristic features of apoptosis, were observed. […] In FIG. 4, the control represents non-treated cells. The sub-G1 DNA contents of colon cancer HTC116 cells and breast cancer MCF-7 cells were measured by FACS (Fluorescence-Activated Cell Sorter) assay to quantify the apoptosis (FIG. 5). Finally, in order to further characterize the apoptosis observed in retinoid derivative-treated cells, the cleavage of apoptosis-related proteins, including PARP (poly(ADP-ribose)polymerase) and CPP32 (caspase-3) by Western blotting. […] PARP cleavage occurred in a time-dependent manner, in parallel with the induction of apoptosis (FIG. 6B). C in FIG. 6 represents the result of Western blotting of non-treated cells.

[9] = tested on: cancer cells; assay: Acridine orange / ethidium bromide double staining; conditions: 10 μM, 96 hours
Description: Therefore, the anti-proliferation effect of KCBG60 is due to the induction of apoptosis.

Row | Compound | IC50 ([1]; 48 hours) [µM] | DNA ladder (DNA fragmentation) [2] | expression level of CAT enzyme, RXRγ + [3] | expression level of CAT enzyme, RXRγ − [3] | relative rate of dead cells having a DNA content of 2N or less [5] | number of viable cancer cells (microscopy) [6] | number of viable cancer cells (microscopy) [7] | cleavage of PARP and CPP32 (Western blotting) [8] | acridine orange / ethidium bromide staining colour of cells [9] | further results
1 | CC1=C(/C=C/C(C)=C/C=C/C(C)=C/C(=O)O)C(C)(C)CCC1 [ATRA, All-trans-retinoic acid, reference compound] |  |  |  |  |  |  |  |  |  | IC50 ([1]; Homo sapiens, PLC-PRF-5, 48 hours): > 500 µM
2 | CC1=C(/C=C/C(C)=C/C=C/C(C)=C/C(=O)Nc2ccc(O)cc2)C(C)(C)CCC1 [HPR, (2E,4E,6E,8E)-[3,7-dimethyl-9-(2,6,6-trimethylcyclohex-1-enyl)-nona-2,4,6,8-tetraenoylamino]-4-hydroxyphenylamide] | 20 | did not show any DNA ladder | 1.5 | 1.3 | much higher rates than other groups |  |  |  |  | activity relative to ATRA for all 3 RARs [4]: about 50%
3 | CCCC(=O)Oc1cc(O)ccc1NC(=O)/C=C(C)/C=C/C=C(C)/C=C/C1=C(C)CCCC1(C)C [KCBG10, 2.2-[(2E,4E,6E,8E)-3,7-Dimethyl-9-(2,6,6-trimethylcyclohex-1-enyl)-nona-2,4,6,8-tetraenoylamino]-5-hydroxyphenylbutanoate] | 12 | DNA band of the ladder shape caused by DNA fragmentation was well detected; also recorded: at a low concentration showed DNA fragmentation |  |  |  | significant reductions in the number of viable cancer cells | significant reductions in the number of viable cancer cells; also recorded: kills MCF-7 cells much more than other derivatives | induced the cleavage of the proteins |  | 
4 | CCCC(=O)Nc1cc(NC(=O)/C=C(C)/C=C/C=C(C)/C=C/C2=C(C)CCCC2(C)C)ccc1O [KCBG41, (2E,4E,6E,8E)-[3,7-dimethyl-9-(2,6,6-trimethylcyclohex-1-enyl)-nona-2,4,6,8-tetraenoylamino]-(3-butyrylamino-4-hydroxy)phenylamide] |  | DNA band of the ladder shape caused by DNA fragmentation was well detected |  |  |  | significant reductions in the number of viable cancer cells; also recorded: more effective on HCT116 than other derivatives | significant reductions in the number of viable cancer cells | induced the cleavage of the proteins |  | 
5 | CCCC(=O)Oc1ccc(NC(=O)/C=C(C)/C=C/C=C(C)/C=C/C2=C(C)CCCC2(C)C)cc1 [KCBG60] |  |  | 1.4 | 1.2 | much higher rates than other groups |  |  |  | cells were stained with orange color | activity for RARs and RXRs [4]: activity as low as the control and phenyl butylate-treated group; also recorded: almost no activity for RARs and RXRs
6 | phenyl butylate |  |  | 1.2 | 1.1 |  |  |  |  | cells remained normal green color | 
